In patent US20230067159A1, “ROR-GAMMA-T INHIBITOR, PREPARATION METHOD THEREOF AND USE THEREOF” (priority 2020, published 2023):

Target: T1, RORγ (Homo sapiens, UniProt P51449)
T1 construct: The concentration of B-RORγ LBD was 40 nM
T1 sequence (P51449 269-508 limits assumed): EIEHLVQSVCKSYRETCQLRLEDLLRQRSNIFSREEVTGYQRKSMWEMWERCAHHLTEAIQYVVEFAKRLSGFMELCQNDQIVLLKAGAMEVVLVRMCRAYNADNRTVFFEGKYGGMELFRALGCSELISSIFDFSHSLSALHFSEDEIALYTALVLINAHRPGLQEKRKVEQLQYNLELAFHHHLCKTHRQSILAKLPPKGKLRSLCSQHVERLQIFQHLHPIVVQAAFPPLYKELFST
Test: Fluorescence resonance energy transfer (FRET) test, B-RORγ LBD / Biotin-SRC1
Assay type: biochemical
Settings: not given
Experimental: Biological Example 1 Fluorescence Resonance Energy Transfer (FRET) Test
(1) Preparation of RORγ Test Buffer and 10 mM of DTT
100 mL of 1× Basic test buffer (HEPES (pH 7.4), 100 mM NaCl, 0.01% BSA) was prepared, and 154.25 mg of DTT was added. The mixture was well mixed.
(2) Preparation of Compound with Gradient Concentration
a. Standard compound was prepared: Standard compound was diluted with 100% DMSO to 2.5 mM, then diluted 3-fold with 11 serial dilutions to a final concentration of […];
b. Test compound was prepared referring to the standard compound.
(3) Preparation of 1× Protein Solution Mixture
(§1) a. Preparation of the desired amount of 2× B-RORγ LBD/SA-APC protein mixture: The concentration of B-RORγ LBD was 40 nM, and the concentration of SA-APC was 20 nM. They were mixed by gently inversion, and incubated at room temperature for 15 minutes. Then 400 nM of biotin was added. The mixture was mixed by gently inversion, and incubated at room temperature for 10 minutes;
as §1, with “b.” for “a.”, “Biotin-SRC1/SA-eu” for “B-RORγ LBD/SA-APC”, “Bioin-SRC1” for “B-RORγ LBD”, “SA-eu” for “SA-APC”, “200” for “400”
c. The protein mixtures prepared in step a and step b were mixed at a ratio of 1:1, and incubated at room temperature for 5 minutes;
d. 25 μL of the mixture from step c was added to the 384-well plate containing the test compound;
e. The mixture was centrifuged at 1000 rpm for one minute;
f. The mixture was incubated for 1 hour at room temperature.
(4) Data Collection and Calculation
After incubation at room temperature for 1 hour, the fluorescence values at 665 nm and 615 nm were measured with an EnVision plate reader, and the inhibition rate was calculated.
Inhibition rate %)=[(X−Min)/(Max−Min)]×100%
X is the fluorescence value ratio of “665/615” of the test compound; Min is the average value of “665/615” of the DMSO blank control; Max is the average value of “665/615” of the 10 μM SRC.

Row | Compound | IC50 [µM]
1 | CCS(=O)(=O)c1ccc([C@H](CO)NC(=O)c2ccc(N3C[C@H](Oc4ccc(C(F)(F)F)cc4)C[C@H]3COCCC(F)F)cc2)cc1 [Example 44] | 0.051
2 | CCC(F)(F)OC[C@@H]1C[C@H](Oc2ccc(C(F)(F)F)cc2)CN1c1ccc(C(=O)N[C@@H](CO)c2ccc(S(=O)(=O)CC)cc2)cc1 [Example 45] | 0.017
3 | CCS(=O)(=O)c1ccc([C@H](CO)NC(=O)c2ccc(N3C[C@H](Oc4ccc(C(F)(F)F)cc4)C[C@H]3CCOC(F)F)cc2)cc1 [Example 46] | 0.0132
4 | CCS(=O)(=O)c1ccc([C@H](CO)NC(=O)c2ccc(N3C[C@@H](Oc4ccc(C(F)(F)F)cc4)C[C@H]3CCOC(F)F)cc2)cc1 [Example 47] | 0.0046
5 | CCS(=O)(=O)c1ccc([C@H](CO)NC(=O)c2ccc(N3C[C@H](Oc4ccc(C(F)(F)F)cc4)C[C@H]3COCC3CC3)nc2)cc1 [Example 50] | 0.052
6 | CCS(=O)(=O)c1ccc([C@H](CO)NC(=O)c2ccc(N3C[C@H](Oc4ccc(C(F)(F)F)cc4)C[C@H]3COC(F)F)nc2)cc1 [Example 52] | 0.0499
7 | CCS(=O)(=O)c1ccc([C@H](CO)NC(=O)c2ccc(N3C[C@@H](Oc4ccc(C(F)(F)F)cc4)C[C@H]3COC(F)F)nc2)cc1 [Example 53] | 0.003
8 | CCC(F)(F)OC[C@@H]1C[C@H](Oc2ccc(C(F)(F)F)cc2)CN1c1ccc(C(=O)N[C@@H](CO)c2ccc(S(=O)(=O)CC)cc2)cn1 [Example 55] | 0.009
9 | CCS(=O)(=O)c1ccc(CNC(=O)c2cnc(N3C[C@H](Oc4ccc(C(F)(F)F)cc4)C[C@H]3COCCF)nc2)cc1 [Example 58, N-(4-(ethylsulfonyl)benzyl)-2-((2S, 4R)-2-((2-fluoroethoxy)methyl)-4-(4-(trifluoromethyl)phenoxy)pyrrolidin-1-yl)pyrimidine-5-carboxamide] | 0.0573
10 | CCS(=O)(=O)c1ccc([C@H](CO)NC(=O)c2cnc(N3C[C@H](Oc4ccc(C(F)(F)F)cc4)C[C@H]3COCCF)nc2)cc1 [Example 59, N—((R)-1-(4-(ethylsulfonyl)phenyl)-2-hydroxyethyl)-2-((2S,4R)-2-((2-fluoroethoxy)methyl)-4-(4-(trifluoromethyl)phenoxy)pyrrolidin-1-yl)pyrimidine-5-carboxamide] | 0.028
11 | CCS(=O)(=O)c1ccc([C@H](CO)NC(=O)c2cnc(N3C[C@H](Oc4ccc(C(F)(F)F)cc4)C[C@H]3COCC3CC3)nc2)cc1 [Example 60] | 0.0338
12 | CCS(=O)(=O)c1ccc([C@H](CO)NC(=O)c2cnc(N3C[C@H](Oc4ccc(C(F)(F)F)cc4)C[C@H]3CCOC(F)F)nc2)cc1 [Example 63] | 0.048
13 | CCS(=O)(=O)c1ccc([C@H](CO)NC(=O)c2cnc(N3C[C@@H](Oc4ccc(C(F)(F)F)cc4)C[C@H]3COC(F)F)nc2)cc1 [Example 64] | 0.003
14 | CCC(F)(F)OC[C@@H]1C[C@H](Oc2ccc(C(F)(F)F)cc2)CN1c1ncc(C(=O)N[C@@H](CO)c2ccc(S(=O)(=O)CC)cc2)cn1 [Example 67] | 0.008
15 | CCS(=O)(=O)c1ccc([C@H](CO)NC(=O)c2ccc(N3C[C@H](Oc4ccc(C(F)(F)F)cc4)C[C@H]3COC(F)F)cc2)nc1 [Example 68] | 0.0753
16 | CCS(=O)(=O)c1ccc([C@H](CO)NC(=O)c2ccc(N3C[C@@H](Oc4ccc(C(F)(F)F)cc4)C[C@H]3COC(F)F)cc2)nc1 [Example 69] | 0.004
17 | CCS(=O)(=O)c1ccc([C@H](CO)NC(=O)c2ccc(N3C[C@@H](Oc4ccc(C(F)(F)F)cc4)C[C@H]3COC(F)F)nc2)nc1 [Example 70] | 0.0076
18 | CCS(=O)(=O)c1ccc([C@H](CO)NC(=O)c2cnc(N3C[C@@H](Oc4ccc(C(F)(F)F)cc4)C[C@H]3COC(F)F)nc2)nc1 [Example 71] | 0.0093

Row | Compound | IC50 [µM]
19 | CCC(F)(F)OC[C@@H]1C[C@H](Oc2ccc(C(F)(F)F)cc2)CN1c1ccc(C(=O)N[C@@H](CO)c2ccc(S(=O)(=O)CC)cn2)cc1 [Example 73] | 0.013
20 | CCC(F)(F)OC[C@@H]1C[C@H](Oc2ccc(C(F)(F)F)cc2)CN1c1ccc(C(=O)N[C@@H](CO)c2ccc(S(=O)(=O)CC)cn2)cn1 [Example 74] | 0.011
21 | CCC(F)(F)OC[C@@H]1C[C@H](Oc2ccc(C(F)(F)F)cc2)CN1c1ncc(C(=O)N[C@@H](CO)c2ccc(S(=O)(=O)CC)cn2)cn1 [Example 75] | 0.0121
22 | CCS(=O)(=O)c1ccc([C@H](CO)NC(=O)c2ccc(N3CC[C@H](Oc4ccc(C(F)(F)F)cc4)C3)c(F)c2)cc1 [Example 79, N—((R)-1-(4-(ethylsulfonyl)phenyl)-2-hydroxyethyl)-3-fluoro-4-((S)-3-(4-(trifluoromethyl)phenoxy)pyrrolidin-1-yl)benzamide] | 0.013
23 | CCS(=O)(=O)c1ccc([C@H](CO)NC(=O)c2cnc(N3CC[C@H](Oc4ccc(C(F)(F)F)cc4)C3)c(F)c2)cc1 [Example 81, N—((R)-1-(4-(ethylsulfonyl)phenyl)-2-hydroxyethyl)-5-fluoro-6-((S)-3-(4-(trifluoromethyl)phenoxy)pyrrolidin-1-yl)nicotinamide] | 0.078
24 | CCS(=O)(=O)c1ccc([C@H](CO)NC(=O)c2ccc(N3C[C@@H](Oc4ccc5c(c4)OC(F)(F)O5)C[C@H]3COC(F)F)cc2)cc1 [Example 82, 4-((2S,4S)-4-((2,2-difluorobenzo[d][1,3]dioxol-5-yl)oxy)-2-((difluoromethoxy)methyl)pyrrolidin-1-yl)-N—((R)-1-(4-(ethylsulfonyl)phenyl)-2-hydroxyethyl)benzamide] | 0.004
25 | CCS(=O)(=O)c1ccc([C@H](CO)NC(=O)c2ccc(N3C[C@@H](Oc4ccc(C(F)(F)F)nc4)C[C@H]3COC(F)F)cc2)cc1 [Example 83] | 0.006
26 | CCS(=O)(=O)c1ccc([C@H](CO)NC(=O)c2ccc(N3C[C@@H](Oc4ccc(C(F)(F)F)cc4)C[C@H]3COC(F)F)c(F)c2)cc1 [Example 85] | 0.0045
27 | CCS(=O)(=O)c1ccc([C@H](CO)NC(=O)c2ccc(N3C[C@@H](Oc4ccc(C(F)(F)F)cc4)C[C@H]3COC(F)F)cc2F)cc1 [Example 86] | 0.006
28 | CCS(=O)(=O)c1ccc([C@H](CO)NC(=O)c2ccc(N3C[C@@H](Oc4ccc(C(F)(F)F)cc4)C[C@H]3COC(F)F)nc2OC)cc1 [Example 88] | 0.03
29 | CCS(=O)(=O)c1ccc([C@H](CO)NC(=O)c2ccc(N3C[C@@H](Oc4ccc(C(F)(F)F)cc4)C[C@H]3COC(F)F)c(OC)c2)cc1 [Example 89] | 0.026
30 | CCS(=O)(=O)c1ccc([C@H](CO)NC(=O)c2ccc(N3C[C@@H](Oc4ccc(C(F)(F)F)cc4)C[C@H]3COC(F)F)cc2OC)cc1 [Example 90] | 0.03
31 | CCS(=O)(=O)c1ccc([C@H](CO)NC(=O)c2ccc(N3C[C@@H](Oc4ccc(C(F)(F)F)cc4)C[C@H]3COC(F)(F)F)nc2)cc1 [Example 94, N—((R)-1-(4-(ethylsulfonyl)phenyl)-2-hydroxyethyl)-6-((2S,4S)-2-((trifluoromethoxy)methyl)-4-(4-(trifluoromethyl)phenoxy)pyrrolidin-1-yl)nicotinamide] | 0.008
32 | CCS(=O)(=O)c1ccc([C@H](CO)NC(=O)c2cnc(N3C[C@H](Oc4ccc(C(F)(F)F)cc4)C[C@H]3COC(F)(F)F)nc2)cc1 [Example 95, N—((R)-1-(4-(ethylsulfonyl)phenyl)-2-hydroxyethyl)-2-((2S,4R)-2-((trifluoromethoxy)methyl)-4-(4-(trifluoromethyl)phenoxy)pyrrolidin-1-yl)pyrimidine-5-carboxamide] | 0.045
33 | CCS(=O)(=O)c1ccc([C@H](CO)NC(=O)c2ccc(N3C[C@@H](Oc4ccc(C(F)(F)F)cc4)C[C@H]3COC(F)(F)F)cc2C#N)cc1 [Example 96, 2-cyano-N—((R)-1-(4-(ethylsulfonyl)phenyl)-2-hydroxyethyl)-4-((2S,4S)-2-((trifluoromethoxy)methyl)-4-(4-(trifluoromethyl)phenoxy)pyrrolidin-1-yl)benzamide] | 0.064
34 | CCS(=O)(=O)c1ccc([C@@H](CO)NC(=O)c2ccc(N3C[C@@H](Oc4ccc(C(F)(F)F)cc4)C[C@H]3COC(F)F)cc2)cc1 [Example 98] | 0.017
35 | CCS(=O)(=O)c1ccc(CNC(=O)c2ccc(N3C[C@@H](Oc4ccc(OC(F)(F)F)cn4)C[C@H]3COC(F)F)cc2)cc1 [Example 107] | 0.078

Same assay, conditions: inhibitory activity of RORγ at the molecular level, FRET 665/615; read-out: IC50

Row | Compound | IC50 [µM]
36 | CCS(=O)(=O)c1ccc([C@H](CO)NC(=O)c2ccc(N3C[C@H](Oc4ccc(C(F)(F)F)cc4)C[C@H]3COC(C)(F)F)cc2)cc1 [Example 42] | 0.0178
